{"source": "patent US6500849B1", "about": "“1-alkyl-, 1-alkenyl-, and 1-alkynylaryl-2-amino 1,3-propanediols and related compounds” (Aventis Pharmaceuticals Inc., priority 1990, dated 2002)", "key": {"[1]": {"test_system": "female Swiss Webster mice", "test": "TPA-induced ear edema assay", "type": "in vivo", "conditions": "10 μg/ear topical, after about 5 hours", "method": "In the TPA-induced ear edema assay, TPA (12-O-tetradecanoylphorbol-13-acetate) was dissolved in 30/70 propylene glycol/ethanol and was applied to the right ear of groups of 6 female Swiss Webster mice, which were housed together in a cage under standard conditions for 1 week prior to use with food and water ad lib, at a volume of 20 μl so that a total of 10 μg of TPA is delivered to the inner and outer surfaces of the ear. The test compound was dissolved in the vehicle and was applied to the right ear (the inner and outer surface) at a volume of 20 μl so that a total of 10 μg of the compound was delivered to the ear. After about 5 hours, the animals were sacrificed, a 4 mm diameter plug was taken from each ear and weighed. The difference between the right and left ear plug weights for each animal was determined. The antiinflammatory activity of the test compound is expressed as the mean percent change in the ear plug weight of the treated animals compared to the mean percent change in the plug weight of the control animals."}, "[2]": {"test_system": "female Swiss Webster mice", "test": "Arachidonic acid-induced ear edema assay", "type": "in vivo", "conditions": "1 mg/ear topical, arachidonic acid 4 mg/ear", "method": "In the arachidonic acid-induced ear edema assay, the test compound was dissolved in 30/70 propylene glycol/ethanol and was applied to both ears of groups of 6 female Swiss Webster mice, which were housed together in a cage under standard conditions for 1 week prior to use with food and water ad lib, at a volume of 20 μl so that a total of 1.0 mg of test compound was delivered to each ear over the inner and outer surfaces. The same volume (20 μl) of vehicle was applied to each ear of a control group of mice. After 30 minutes, arachidonic acid was applied to the right ear of each mouse of each group in the amount of 4 mg/ear. Vehicle was applied to the left ear of each mouse of each group at a volume of 20 μl/ear. After an additional hour, the mice were sacrificed and a 4 mm plug was taken from each ear and weighed. The difference between the right and left ear plugs was determined for each animal. The antiinflammatory activity of the test compound is expressed as the mean percent change in the ear plug weight of the treated animals relative to the mean percent change in weights of control animals' ear. Antiinflammatory activity of representative compounds of the present invention as determined in this assay are presented below in Table 3."}, "Protein kinase C": {"biological_target": "Protein kinase C", "test": "Protein kinase C assay (32P incorporation into Type III histone)", "type": "biochemical, rat", "conditions": "rat brain protein kinase C; phosphatidylserine/diacylglycerol stimulated; read-out: Protein Kinase Inhibitory Activity IC50", "method": "(see U. Kikkawa, et al., Biochemical and Biophysical Research Communications, 135, 636 (1986) and R. M. Bell, et al. “Methods in Enzymology, Hormone Action,” Part J, P.M. Conn, Ed., Academic Press, Inc., New York, N.Y. 1986, page 353). Protein kinase C enzyme extract was prepared from the brain of male Wistar rats weighing 180 to 200 g and purified by the method of U. Kikkawa, et al., ibid. 636. The purified extract was stored at −80° C., and aliquots were used in the protein kinase C assay performed by a modification of the method of R. M. Bell, et al., ibid. al 354. To perform the assay, duplicate aliquots of duplicate samples are employed. Basal or unstimulated protein kinase C, phosphatidylserine/diacylglycerol stimulated protein kinase C, and test samples are run in each assay. […] The assay tubes were allowed to warm to 25° C. and an 8 μl mixture of adenosine 5′-triphosphate (100 μM) and ^32P-adenosine triphosphate (1 to 2×10^5 counts per minute) was added to each tube for a final volume of 80 μl per tube. After 2 min, the reaction (the incorporation of phosphorous into Type III histone) was terminated by spotting the assay mixture on phosphocellulose paper. The spots are cut out of the paper and the radioactivity (counts per min) of each spot was determined in a scintillation counter."}, "E. coli": {"test_system": "E. coli", "test": "Aerobic antibacterial assay (agar dilution, Mueller-Hinton agar)", "type": "cell-based"}, "Bact. fragilis": {"test_system": "Bact. fragilis", "test": "Anerobic antibacterial assay (agar dilution, Wilkins-Chalgren agar)", "type": "cell-based", "conditions": "anaerobic, 48 hours at 37° C."}, "Bact. ovatus": {"test_system": "Bact. ovatus", "test": "Anerobic antibacterial assay (agar dilution, Wilkins-Chalgren agar)", "type": "cell-based", "conditions": "Bact. ovatus 103; anaerobic; 48 hours at 37° C."}, "Bact. vulgatus": {"test_system": "Bact. vulgatus", "test": "Anerobic antibacterial assay (agar dilution, Wilkins-Chalgren agar)", "type": "cell-based", "conditions": "Bact. vulgatus 1446; anaerobic; 48 hours at 37° C."}, "Bact. thetaiotaom.": {"test_system": "Bact. thetaiotaom.", "test": "Anerobic antibacterial assay (agar dilution, Wilkins-Chalgren agar)", "type": "cell-based", "conditions": "anaerobic, 48 hours at 37° C."}, "Bact. distasonis": {"test_system": "Bact. distasonis", "test": "Anerobic antibacterial assay (agar dilution, Wilkins-Chalgren agar)", "type": "cell-based", "conditions": "Bact. distasonis 1366; anaerobic; 48 hours at 37° C."}, "Fusobact. varium": {"test_system": "Fusobact. varium", "test": "Anerobic antibacterial assay (agar dilution, Wilkins-Chalgren agar)", "type": "cell-based", "conditions": "anaerobic, 48 hours at 37° C."}, "Peptostr. anaerobius": {"test_system": "Peptostr. anaerobius", "test": "Anerobic antibacterial assay (agar dilution, Wilkins-Chalgren agar)", "type": "cell-based", "conditions": "Peptostr. anaerobius 932; anaerobic; 48 hours at 37° C."}, "Propionibact. acnes": {"test_system": "Propionibact. acnes", "test": "Anerobic antibacterial assay (agar dilution, Wilkins-Chalgren agar)", "type": "cell-based", "conditions": "anaerobic, 48 hours at 37° C."}, "Clost. tetani": {"test_system": "Clost. tetani", "test": "Anerobic antibacterial assay (agar dilution, Wilkins-Chalgren agar)", "type": "cell-based", "conditions": "Clost. tetani 19406; anaerobic; 48 hours at 37° C."}, "Clost. perfringens": {"test_system": "Clost. perfringens", "test": "microbe, parasite or virus in culture", "type": "cell-based", "conditions": "Clost. perfringens 194; anaerobic; 48 hours at 37° C."}, "Staph. aureus": {"test_system": "Staph. aureus", "test": "Aerobic antibacterial assay (agar dilution, Mueller-Hinton agar)", "conditions": "aerobic, 24 hours at 37° C."}, "Strept. pyogenes": {"test_system": "Strept. pyogenes", "test": "Aerobic antibacterial assay (agar dilution, Mueller-Hinton agar)", "conditions": "aerobic, 24 hours at 37° C."}, "Strept. faecium": {"test_system": "Strept. faecium", "test": "Aerobic antibacterial assay (agar dilution, Mueller-Hinton agar)", "conditions": "Strept. faecium D; aerobic; 24 hours at 37° C."}, "S. typhimurium": {"test_system": "S. typhimurium", "test": "Aerobic antibacterial assay (agar dilution, Mueller-Hinton agar)", "conditions": "S. typhimurium; aerobic; 24 hours at 37° C."}, "Klebsiella spp.": {"test_system": "Klebsiella spp.", "test": "Aerobic antibacterial assay (agar dilution, Mueller-Hinton agar)", "conditions": "aerobic, 24 hours at 37° C."}, "E. cloacae": {"test_system": "E. cloacae", "test": "Aerobic antibacterial assay (agar dilution, Mueller-Hinton agar)", "conditions": "aerobic, 24 hours at 37° C."}}, "note": "pIC50: −log10 of the molar value."}
{"molecule": "CCCCCCCCCCCCC/C=C/[C@@H](O)[C@@H](N)CO", "note": "[D-erythro-sphingosine, reference compound]", "values": [{"measurement": "Antiinflammatory Activity Percent Decrease in Ear Plug Weight at 10 μg/ear", "setting": "[1]", "value": 46, "unit": "%"}, {"measurement": "Antiinflammatory Activity Percent Decrease in Ear Plug Weight at 1 mg/ear", "setting": "[2]", "value": "+9%"}, {"measurement": "pIC50", "setting": "Protein kinase C", "value": 5.17}, {"measurement": "Antibacterial activity (MIC, mg/l)", "setting": "E. coli; E. coli 1507E, 24 hours at 37° C.", "value": ">100.0", "unit": "mg/L"}, {"measurement": "Antibacterial activity (MIC, mg/l)", "setting": "E. coli; E. coli DC0, 24 hours at 37° C.", "value": ">100.0", "unit": "mg/L"}, {"measurement": "Antibacterial activity (MIC, mg/l)", "setting": "E. coli; E. coli DC2, 24 hours at 37° C.", "value": 25.0, "unit": "mg/L"}, {"measurement": "Antibacterial activity (MIC, mg/l)", "setting": "E. coli; E. coli O 78, 24 hours at 37° C.", "value": ">100.0", "unit": "mg/L"}, {"measurement": "Antibacterial activity (MIC, mg/l)", "setting": "E. coli; E. coli TEM, 24 hours at 37° C.", "value": ">100.0", "unit": "mg/L"}, {"measurement": "Antibacterial activity (MIC, mg/l)", "setting": "Bact. fragilis; Bact. fragilis 312", "value": 25.0, "unit": "mg/L"}, {"measurement": "Antibacterial activity (MIC, mg/l)", "setting": "Bact. fragilis; Bact. fragilis 960", "value": 12.5, "unit": "mg/L"}, {"measurement": "Antibacterial activity (MIC, mg/l)", "setting": "Bact. fragilis; Bact. fragilis 1313", "value": 25.0, "unit": "mg/L"}, {"measurement": "Antibacterial activity (MIC, mg/l)", "setting": "Bact. fragilis; Bact. fragilis 17390", "value": 25.0, "unit": "mg/L"}, {"measurement": "Antibacterial activity (MIC, mg/l)", "setting": "Bact. fragilis; Bact. fragilis 18125", "value": 25.0, "unit": "mg/L"}, {"measurement": "Antibacterial activity (MIC, mg/l)", "setting": "Bact. fragilis; Bact. fragilis 19016", "value": 25.0, "unit": "mg/L"}, {"measurement": "Antibacterial activity (MIC, mg/l)", "setting": "Bact. ovatus", "value": 12.5, "unit": "mg/L"}, {"measurement": "Antibacterial activity (MIC, mg/l)", "setting": "Bact. vulgatus", "value": 25.0, "unit": "mg/L"}, {"measurement": "Antibacterial activity (MIC, mg/l)", "setting": "Bact. thetaiotaom.; Bact. thetaiotaom. 123", "value": 25.0, "unit": "mg/L"}, {"measurement": "Antibacterial activity (MIC, mg/l)", "setting": "Bact. thetaiotaom.; Bact. thetaiotaom. 1428", "value": 25.0, "unit": "mg/L"}, {"measurement": "Antibacterial activity (MIC, mg/l)", "setting": "Bact. thetaiotaom.; Bact. thetaiotaom. 1445", "value": 25.0, "unit": "mg/L"}, {"measurement": "Antibacterial activity (MIC, mg/l)", "setting": "Bact. distasonis", "value": 12.5, "unit": "mg/L"}, {"measurement": "Antibacterial activity (MIC, mg/l)", "setting": "Fusobact. varium; Fusobact. varium 3085", "value": 25.0, "unit": "mg/L"}, {"measurement": "Antibacterial activity (MIC, mg/l)", "setting": "Fusobact. varium; Fusobact. varium 5262", "value": 25.0, "unit": "mg/L"}, {"measurement": "Antibacterial activity (MIC, mg/l)", "setting": "Peptostr. anaerobius", "value": 12.5, "unit": "mg/L"}, {"measurement": "Antibacterial activity (MIC, mg/l)", "setting": "Propionibact. acnes; Propionibact. acnes 6919", "value": 12.5, "unit": "mg/L"}, {"measurement": "Antibacterial activity (MIC, mg/l)", "setting": "Propionibact. acnes; Propionibact. acnes 6922", "value": 12.5, "unit": "mg/L"}, {"measurement": "Antibacterial activity (MIC, mg/l)", "setting": "Clost. tetani", "value": 50.0, "unit": "mg/L"}, {"measurement": "Antibacterial activity (MIC, mg/l)", "setting": "Clost. perfringens", "value": 6.25, "unit": "mg/L"}, {"measurement": "Antibacterial activity (MIC, mg/l)", "setting": "Staph. aureus; Staph. aureus 285", "value": 25.0, "unit": "mg/L"}, {"measurement": "Antibacterial activity (MIC, mg/l)", "setting": "Staph. aureus; Staph. aureus 503", "value": 25.0, "unit": "mg/L"}, {"measurement": "Antibacterial activity (MIC, mg/l)", "setting": "Staph. aureus; Staph. aureus SG511", "value": 25.0, "unit": "mg/L"}, {"measurement": "Antibacterial activity (MIC, mg/l)", "setting": "Strept. pyogenes; Strept. pyogenes 77 A", "value": 25.0, "unit": "mg/L"}, {"measurement": "Antibacterial activity (MIC, mg/l)", "setting": "Strept. pyogenes; Strept. pyogenes 308 A", "value": 12.5, "unit": "mg/L"}, {"measurement": "Antibacterial activity (MIC, mg/l)", "setting": "Strept. faecium", "value": 25.0, "unit": "mg/L"}, {"measurement": "Antibacterial activity (MIC, mg/l)", "setting": "S. typhimurium", "value": ">100.0", "unit": "mg/L"}, {"measurement": "Antibacterial activity (MIC, mg/l)", "setting": "Klebsiella spp.; Klebsiella spp. 1082E", "value": 25.0, "unit": "mg/L"}, {"measurement": "Antibacterial activity (MIC, mg/l)", "setting": "Klebsiella spp.; Klebsiella spp. 1522E", "value": ">100.0", "unit": "mg/L"}, {"measurement": "Antibacterial activity (MIC, mg/l)", "setting": "E. cloacae; E. cloacae 1321E", "value": 50.0, "unit": "mg/L"}, {"measurement": "Antibacterial activity (MIC, mg/l)", "setting": "E. cloacae; E. cloacae P99", "value": ">100.0", "unit": "mg/L"}]}
